“And” between values parts separate entries of the source, which are not always exact repeats. Equal values may be shown once. Residues, ends and D or L forms follow the SMILES beside them. *: point of attachment. Cbz = O=C(OCc1ccccc1)*; NHPh = c1ccc(N*)cc1; OtBu = CC(C)(C)O*
Test system: donor-derived DRG neurons
Assay: Whole-cell current-clamp, human donor-derived DRG neurons
Format: cell-based
Source text: Human donor (hDRG) neurons. Dorsal root ganglia were recovered from consented, de-identified organ and tissue donors at the University of Cincinnati Medical Center following previously described protocols (57, 58). Recovered tissues were transported in oxygenated, ice-cold N-methyl-D-glucamine (NMDG) artificial […] (aCSF, mM): 93 NMDG, 2.5 KCl, 1.25 NaH2PO4, 30 NaHCO3, 20 HEPES, 25 Glucose, 5 Ascorbic acid, 2 Thiourea, 3 Na+ pyruvate, 10 MgSO4, 0.5 CaCl2, 12 N-acetylcysteine, adjusted to pH 7.4 with HCl). hDRGs were isolated from connective tissue, fat, roots, and nerves and then minced into small 1-3 mm pieces which were enzymatically treated with warmed papain (45U) followed by collagenase (4.5 mg/200µl) each for 40 minutes at 37 °C, 5% CO2 in HBSS with 5 mM HEPES (Hanks’ Balanced Salt Solution with 4-2 (2-hydrozyethyl)-1-piperazineethananessulfonic acid; Gibco). Neurons were dissociated by trituration and incubated in warmed Neurobasal A-based DRG media (with penicillin/streptomycin, B27 supplement (Gibco), fetal bovine serum (FBS), and GlutaMAX (Gibco, cat # 35050061), as previously described. Dissociated DRG suspension was plated onto poly-d-lysine (0.01 mg/ml, Sigma) and collagen (1 mg/ml, Sigma) coated coverslips and incubated 2 days. […]
following salts: extracellular (mM): 140 NaCl, 3 KCl, 1 MgCl2, 1 CaCl2, 10 HEPES, 10 glucose, pH 7.3; intracellular (mM): 130 CH3O3 SCs, 1 EGTA, 10 NaCl, 10 HEPES, pH 7.3. Membrane capacitance and series resistance were estimated by the dial settings on the amplifier and compensated for electronically by 70–80%.
Data was acquired at 20 kHz and filtered at 5 kHz before digitization and storage. All experimental parameters were controlled by Clampex 9.2 software (Molecular Devices) and interfaced to the electrophysiological equipment using a Digidata 1300 analog–digital interface (Molecular Devices). […]
μM PW164 or ZL192 in the extracellular solution. The recording solution consisted of the following salts: extracellular (mM): 130 NaCl, 3 KCl, 30 TEA, 0.1 CdCl2 1 MgCl2, 1 CaCl2, 10 HEPES, 10 glucose, pH 7.3; intracellular (mM): 140 CsF, 1.1 EGTA, 10 NaCl, 10 HEPES, pH 7.3.
Human donor DRG neurons: Coverslips were transferred to a recording chamber and bathed in extracellular solution (mM): 145 NaCl, 3 KCl, 2.5 CaCl2, 1.2 MgCl2, 10 HEPES, 7 glucose, 0.05 CdCl2 adjusted to pH 7.4 with NaOH, with a flow rate of 1-2 ml/min. Borosilicate glass pipettes with the resistance of 1.5 to 2.5 MΩ were made using a P-1000 micropipette puller (Sutter Instrument, Novato, CA, USA). The intracellular solution contained (mM): 130 K-gluconate, 5 KCl, 5 NaCl, 2 MgCl2, 0.3 Ethylene glycol-bis(2-aminoethylether)- NNN’N’-tetraacetic acid (EGTA), 10 HEPES, 2 Na ATP, adjusted to pH 7.3 with KOH and 294 mOsm with sucrose. Coverslips were pre-incubated in 50 µM PW164 or ZL192 or 0.1% DMSO vehicle for 1 hour before recording. Recordings were obtained on MultiClamp 700B and Digidata 1550A (Molecular Devices) and sampled […]
at 20 kHz. Neurons were investigated if resting membrane potential was below -45 mV. Neurons were held under current clamp, and membrane properties and action potential discharge were assessed as previously described […]
Human Dorsal Root Ganglia Procurement
Human dorsal root ganglia (DRGs) procurement procedures were performed in accordance with the Institutional Review Boards at the University of Texas at Dallas. DRGs were procured from organ donors through a collaboration with the Southwest Transplant Alliance (STA). DRGs were frozen in powdered dry ice at the time of extraction and then stored in a -80°C freezer until use. Details on tissue procurement procedures, quality metrics, and tissue preparation can be found on protocols.io doi:10.17504/protocols.io.kqdg32qr1v25/v1 (2024).
The medical history of each donor was provided by the STA and is a summary of information from hospital records and family members. Donor demographics, condition (non-diabetic vs diabetic painful neuropathy […]

[1] = 50 µM, 1 hour preincubation, relative to control

| SMILES | action potential firing [1] | rheobase to fire an action potential [1] | Suppl Fig. S16A, 1x (single cells) | Suppl Fig. S16A, 3x (3x, single cells) |
| --- | --- | --- | --- | --- |
| COC(=O)[C@@H](NC(=O)[C@H](CCC(=O)OC(C)(C)C)NC(=O)[C@H](CC(C)C)NC(=O)[C@@H]1CCCN1C(=O)OCc1ccccc1)C(C)C [PW164] (Cbz-PLE(OtBu)V-OMe) | reduced action potential firing | increased rheobase | 1 |  |
| CC(=O)N[C@@H](Cc1ccccc1)C(=O)N[C@@H](CC(C)C)C(=O)N1CCC[C@H]1C(=O)N[C@@H](CCCCN)C(=O)Nc1ccccc1 [ZL192] (Ac-FLPK-NHPh) |  | decreased rheobase | 1 | 2 and 1 |

From publication PMC12259270, “Sensory neuron–expressed FGF13 controls nociceptive signaling in diabetic neuropathy models” (The Journal of Clinical Investigation, 2025)
